Laboratory results reported in patent US9725454B2, “Crystalline forms of ponatinib hydrochloride” (SANDOZ AG, priority 2013, dated 2017).
Where a name gives a salt, the structure may show the parent alone.

Tests used:
[1] = Storage stability, chemical purity by HPLC; type: physicochemical; details: conclusion from the stability studies
Protocol: (§1) To determine concentration, solutions were diluted in methanol; to determine purity, 2.7 mg material was dissolved in 1 mL methanol. The conditions listed below were then used. • Instrument: Agilent 1100 • Column: Waters Symmetry C18 5μ 150×3.9 mm column • Column Temperature: 25° C. • Autosampler Temperature: Not controlled • UV wavelength: 254 nm • Injection Volume: 3 μL • Flow Rate: 1.2 mL/min • Mobile Phase A: 0.01% formic acid in water • Mobile Phase B: 0.01% formic acid in ACN • Gradient program: […]
In order to assess physical and chemical stability, Ponatinib HCl crystal form 1 obtained by direct crystallization according to example 4, and the crystalline ponatinib HCl Form 1 which was obtained via Form 8 according to example 7, were stored at 25° C./60%RH and 40° C./75% RH. After 1 week, the three samples were analysed by XRPD and HPLC (chemical purity).

[2] = Aqueous solubility by HPLC analysis; type: physicochemical; details: water, thermodynamic from solid
Protocol: as §1
A filtered solution of ponatinib HCl in acetonitrile/water (1:1) was allowed to slowly evaporate at ambient temperature. A hydrated crystal form 8 showing characteristic peaks at 6.21 and 10.5 2Theta was found. Approximately 11.4% water content was found by KF analysis. […] (peak at 90° C.).
A filtered solution of ponatinib HCl in acetone/water (1:1) was allowed to slowly evaporate. A hydrated crystal form 8 showing characteristic peaks at 6.21 and 10.5 2Theta was found. Approximately 11.4% water content was found by KF analysis. […] (peak at 90° C.).
Ponatinib HCl form 1 was slurried in water for 24 h at 22° C. A hydrated crystal form 8 showing characteristic peaks at 6.21 and 10.5 2Theta was found. Approximately 11.4% water content was found by KF analysis. […] (peak at 90° C.).

SMILES | chemical stability compared with form 1 obtained by direct crystallization [1] | solubility [2] [µg/mL]
Cc1ccc(C(=O)Nc2ccc(CN3CCN(C)CC3)c(C(F)(F)F)c2)cc1C#Cc1cnc2cccnn12 [Form 1 via form 8, ponatinib hydrochloride] | higher chemical stability | –
Cc1ccc(C(=O)Nc2ccc(CN3CCN(C)CC3)c(C(F)(F)F)c2)cc1C#Cc1cnc2cccnn12 [Form 8, ponatinib hydrochloride] | – | 620
